Assay results from the CheMixHub viscosity set.

Assay: xn = mol fraction of the nth substance listed

BrC(Br)Br + CCCC#N
298.15 K, 101 kPa
Conditions	viscosity [mPa·s]
x1 = 0.09373	0.6216
x1 = 0.2439	0.8407
x1 = 0.3911	1.021
x1 = 0.4986	1.169
x1 = 0.7	1.46
x1 = 0.9	1.724

CC12CC3CC(C1)CC(C)(C3)C2 + CCCCC1CCCCC1
viscosity [mPa·s], 100 kPa
Conditions	x1 = 0.083	x1 = 0.1716	x1 = 0.2652	x1 = 0.3625	x1 = 0.4617	x1 = 0.5636	x1 = 0.662	x1 = 0.7728	x1 = 0.8838
293.15 K	1.407	1.518	1.654	1.802	1.989	2.215	2.472	2.797	3.222
298.15 K	1.293	1.391	1.512	1.643	1.805	2.007	2.229	2.518	2.885
303.15 K	1.194	1.281	1.389	1.506	1.647	1.828	2.024	2.272	2.601
313.15 K	1.03	1.099	1.187	1.28	1.393	1.537	1.692	1.883	2.145
323.15 K	0.893	0.951	1.008	1.088	1.182	1.289	1.414	1.583	1.774

BrC(Br)Br + CCCCCC
298.15 K, 101 kPa
Conditions	viscosity [mPa·s]
x1 = 0.1058	0.3543
x1 = 0.2044	0.402
x1 = 0.2976	0.4904
x1 = 0.3989	0.5721
x1 = 0.5	0.6698
x1 = 0.6001	0.8212
x1 = 0.6743	0.9353
x1 = 0.8	1.217
x1 = 0.8948	1.475

C=Cc1ccccc1 + CCCCCC
viscosity [mPa·s], 101.33 kPa
Conditions	x1 = 0.1019	x1 = 0.1987	x1 = 0.3024	x1 = 0.4003	x1 = 0.4992	x1 = 0.6023	x1 = 0.7055	x1 = 0.8021	x1 = 0.8935
298.15 K	0.314	0.334	0.362	0.385	0.417	0.457	0.507	0.566	0.632
303.15 K	0.302	0.319	0.346	0.367	0.397	0.436	0.482	0.534	0.597
308.15 K	0.29	0.305	0.328	0.351	0.379	0.412	0.455	0.505	0.56

CCC(C)(C)OC + CCCCCC
viscosity [mPa·s], 100 kPa
Conditions	x1 = 0.0498	x1 = 0.1632	x1 = 0.2584	x1 = 0.3742	x1 = 0.4276	x1 = 0.5464	x1 = 0.6121	x1 = 0.7457	x1 = 0.8625	x1 = 0.9488
293.15 K	0.317	0.325	0.332	0.343	0.349	0.363	0.372	0.391	0.412	0.429
303.15 K	0.287	0.293	0.3	0.31	0.315	0.33	0.339	0.362	0.384	0.407
313.15 K	0.254	0.259	0.266	0.277	0.282	0.296	0.304	0.323	0.343	0.358

CCCCCCCCO + CCCCCC
298.15 K, 101.33 kPa
Conditions	viscosity [mPa·s]
x2 = 0.1657	4.313
x2 = 0.2119	3.677
x2 = 0.274	2.968
x2 = 0.3717	2.093
x2 = 0.4775	1.432
x2 = 0.5556	1.096
x2 = 0.6659	0.759
x2 = 0.7638	0.559
x2 = 0.8406	0.443
x2 = 0.9211	0.35
x2 = 0.9597	0.319

C=Cc1ccccc1 + CCCCCCC
viscosity [mPa·s], 101.33 kPa
Conditions	x1 = 0.1018	x1 = 0.202	x1 = 0.2988	x1 = 0.3984	x1 = 0.4989	x1 = 0.5997	x1 = 0.6992	x1 = 0.8006	x1 = 0.8979
298.15 K	0.398	0.412	0.427	0.448	0.471	0.5	0.536	0.581	0.638
303.15 K	0.379	0.393	0.406	0.425	0.445	0.473	0.508	0.55	0.599
308.15 K	0.36	0.372	0.386	0.405	0.423	0.45	0.481	0.519	0.565

CCCCCCCCO + CCCCCCC
viscosity [mPa·s], 101.33 kPa
Conditions	298.15 K	308.15 K
x1 = 0.0448	0.4411	0.3932
x1 = 0.0922	0.4999	0.4375
x1 = 0.1826	0.6375	0.5457
x1 = 0.278	0.8198	0.6942
x1 = 0.3705	1.072	0.8964
x1 = 0.469	1.464	1.149
x1 = 0.5664	1.902	1.594
x1 = 0.6697	2.7	2.213
x1 = 0.7784	3.885	3.021
x1 = 0.8336	4.545	3.466
x1 = 0.8844	5.124	3.885
x1 = 0.9381	6.024	4.399

BrC(Br)Br + CCCCCCC(C)O
viscosity [mPa·s], 101.3 kPa
Conditions	x1 = 0.104	x1 = 0.199	x1 = 0.3	x1 = 0.403	x1 = 0.502	x1 = 0.603	x1 = 0.704	x1 = 0.801	x1 = 0.899
298.15 K	5.244	4.606	3.91	3.391	2.965	2.623	2.337	2.123	1.969
303.15 K	4.336	3.855	3.348	2.937	2.594	2.335	2.104	1.943	1.83
308.15 K	3.625	3.274	2.894	2.566	2.288	2.084	1.913	1.785	1.698

C=Cc1ccccc1 + CCCCCCCC
Conditions	viscosity [mPa·s]
293.15 K, 101 kPa, x1 = 0.622	0.585
298.15 K, 101 kPa, x1 = 0.622	0.55
298.15 K, 101.33 kPa, x1 = 0.1009	0.512
298.15 K, 101.33 kPa, x1 = 0.1995	0.514
298.15 K, 101.33 kPa, x1 = 0.331	0.516
298.15 K, 101.33 kPa, x1 = 0.3985	0.522
298.15 K, 101.33 kPa, x1 = 0.4971	0.535
298.15 K, 101.33 kPa, x1 = 0.5989	0.558
298.15 K, 101.33 kPa, x1 = 0.7005	0.587
298.15 K, 101.33 kPa, x1 = 0.8009	0.616
298.15 K, 101.33 kPa, x1 = 0.8988	0.657
303.15 K, 101 kPa, x1 = 0.622	0.52
303.15 K, 101.33 kPa, x1 = 0.1009	0.481
303.15 K, 101.33 kPa, x1 = 0.1995	0.485
303.15 K, 101.33 kPa, x1 = 0.331	0.488
303.15 K, 101.33 kPa, x1 = 0.3985	0.495
303.15 K, 101.33 kPa, x1 = 0.4971	0.5
303.15 K, 101.33 kPa, x1 = 0.5989	0.524
303.15 K, 101.33 kPa, x1 = 0.7005	0.552
303.15 K, 101.33 kPa, x1 = 0.8009	0.575
303.15 K, 101.33 kPa, x1 = 0.8988	0.617
308.15 K, 101.33 kPa, x1 = 0.1009	0.461
308.15 K, 101.33 kPa, x1 = 0.1995	0.462
308.15 K, 101.33 kPa, x1 = 0.331	0.464
308.15 K, 101.33 kPa, x1 = 0.3985	0.467
308.15 K, 101.33 kPa, x1 = 0.4971	0.476
308.15 K, 101.33 kPa, x1 = 0.5989	0.495
308.15 K, 101.33 kPa, x1 = 0.7005	0.521
308.15 K, 101.33 kPa, x1 = 0.8009	0.55
308.15 K, 101.33 kPa, x1 = 0.8988	0.581
313.15 K, 101 kPa, x1 = 0.3202	0.43
313.15 K, 101 kPa, x1 = 0.622	0.465
323.15 K, 101 kPa, x1 = 0.622	0.418
323.15 K, 101 kPa, x1 = 0.8145	0.462
323.15 K, 101 kPa, x1 = 0.9081	0.479

CCCCCCCCO + CCCCCCCC
298.15 K, 101.33 kPa
Conditions	viscosity [mPa·s]
x1 = 0.0015	0.491
x2 = 0.0566	6.369
x2 = 0.1294	5.058
x2 = 0.2321	3.637
x2 = 0.353	2.469
x2 = 0.4724	1.705
x2 = 0.527	1.452
x2 = 0.6297	1.094
x2 = 0.778	0.764
x2 = 0.8294	0.683
x2 = 0.9163	0.572

CC12CC3CC(C1)CC(C)(C3)C2 + CCCCCCCCC
viscosity [mPa·s], 100 kPa
Conditions	x1 = 0.1004	x1 = 0.2014	x1 = 0.3	x1 = 0.4003	x1 = 0.5004	x1 = 0.6001	x1 = 0.7005	x1 = 0.7994	x1 = 0.8997
293.15 K	0.802	0.912	1.033	1.203	1.39	1.647	1.986	2.44	2.984
298.15 K	0.748	0.848	0.958	1.111	1.279	1.501	1.8	2.183	2.68
303.15 K	0.699	0.791	0.891	1.028	1.182	1.377	1.635	1.992	2.419
308.15 K	0.656	0.74	0.831	0.956	1.093	1.267	1.509	1.816	2.196
313.15 K	0.617	0.694	0.777	0.891	1.018	1.18	1.399	1.661	2
318.15 K	0.582	0.652	0.728	0.833	0.947	1.09	1.282	1.527	1.829
323.15 K	0.55	0.615	0.685	0.78	0.885	1.018	1.193	1.411	1.68
